Test system: peripheral blood mononuclear cell (PBMC)
Assay: Cell chromatography retention time of drug-treated PBMC on polystyrene column (150 mm×10 mm), detection at 500 nm
Assay type: cell-based
Conditions: PBMC treated with 10 μg/ml for 2 minutes; PBS pH 7.4, 1 ml/min; un-treated control about 7.7 minutes; FIG. 3
Method: In this example, the column used for analysis of the interaction between small molecule and cell has an inner diameter of 10 mm, a length of 150 mm and a volume of 11.8 ml (150 mm×10 mm). This column was packed with resin particles (size: 1 or 2 millimeter; material: polystyrene) and was washed first and thereafter, filled with a phosphate buffered saline (PBS).
The method is similar as described as above. Whole Blood was separated first by centrifugation using dextran cell separation medium (Ficoll) to yield peripheral blood mononuclear cell (PBMC). Then PBMC was diluted with phosphate buffered saline (PBS) into a cell suspension at concentration of 1×10^6 cells/ml.
Lectin: treated PBMC by 10 μg/ml lectin for two minutes;
Shikonin: treated PBMC by 10 μg/ml shikonin for two minutes.
The cell suspension was added with lectin or shikonin at a concentration of 10 μg/ml (lectin treated group or shikonin treated group). After reacting for 2 minutes, drug-treaded group or un-treated group (control) was loaded on the upper frontier of the column (150 mm×10 mm) respectively, and after adding PBS (pH 7.4) to a level of a pre-determined height, the column was eluted with PBS (pH 7.4) at a steady flow rate of 1 ml/min provided under the action of a pump and integrated with a spectrophotometer, which eluted cells were continuously detected with a wavelength of 500 nm. […]

CC(C)=CC[C@@H](O)C1=CC(=O)c2c(O)ccc(O)c2C1=O [shikonin]
retention time of treated cell in the column: 6.5 min
